Experiments:
MDR1 = assay: MDCK-MDR1 permeability assay (BBB penetration potential); format: in vitro ADME; conditions: dog; for efflux ratio at 120 min, 5 μM: MDCK-MDR1, pH 7.4, MDCK-MDR1: Efflux; for Papp A→B at 120 min, 5 μM: MDCK-MDR1, pH 7.4, MDCK-MDR1: Papp A-B; for Papp B→A at 120 min, 5 μM: MDCK-MDR1, pH 7.4, MDCK-MDR1: Papp B-A
Description: (§1) Each determination is performed in duplicate. […] Analytical conditions are outlined below.

[1] = test system: MDR1-MDCK cell monolayers; assay: as above; format: in vitro ADME; conditions: dog, MDCK-MDR1, 120 min, 5 μM, pH 7.4
Description: as §1

mHTT protein = mHTT protein assay (2B7-MW1, Mesoscale Discovery); format: cell-based, human; conditions: GM04724 (CAG 70/20) Huntington's disease patient lymphoblast cells, 48 hours, 2B7-MW1 MSD; read-out: HTT Potency - Protein EC50 mHTT (average)
Description: Compounds are tested on GM04724 (CAG 70/20) Huntington's disease patient lymphoblast cells at doses ranging from 10 μM to 0.6 nM. 4,500 cells/well are seeded in 384 well plates. One plate replica is carried out for parallel viability testing by CellTiter Glo (CTG). Compounds are incubated for 48 hours, mHTT protein levels are assessed by the 2B7-MW1 assay via Mesoscale Discovery (MSD) as previously reported (Macdonald et al., 2014). The antibody pair is comprised of previously characterized monoclonals (2B7 and MW1) interrogating two regions for HTT conformation and biological properties: the N17 domain and the polyQ domain (Baldo et al., 2012; Ko et., 2001). 2B7-MW1 is dependent on subject/animal specific levels of HTT at the time of treatment. 2B7-MW1 is dependent on polyQ expansion (e.g., the higher the expansion the higher the signal) and on mHTT size (e.g., a similar polyQ will give higher signal with smaller HTT size). The viability readout is carried out by CTG according to the manufacturer's instructions.

| SMILES | efflux ratio at 120 min, 5 μM (MDR1) | Papp A→B at 120 min, 5 μM (MDR1) | Papp B→A at 120 min, 5 μM (MDR1) | MDCK-MDR1: % Recov A-B [1] | MDCK-MDR1: % Recov B-A [1] | EC50 (mHTT protein) |
| --- | --- | --- | --- | --- | --- | --- |
| Oc1cc(-n2cccn2)ccc1-c1ccc(O[C@@H]2C[C@H]3CC[C@H](N3)[C@@H]2F)nn1 (single isomer, unassigned) [35-ENT1] | 4 | 8.31 ×10⁻⁶ cm/s | 32.8 ×10⁻⁶ cm/s | 77% | 87% | 101 to 500 nM |
| Oc1cc(-n2ccnc2)ccc1-c1ccc(O[C@@H]2C[C@H]3CC[C@H](N3)[C@@H]2F)nn1 (single isomer, unassigned) [36-ENT1] | 5 | 5.28 ×10⁻⁶ cm/s | 26 ×10⁻⁶ cm/s | 74% | 83% | 51 to 100 nM |
| Oc1cc(-n2ccnc2)ccc1-c1ccc(O[C@H]2C[C@@H]3CC[C@@H](N3)[C@H]2F)nn1 (single isomer, unassigned) [36-ENT2] | 5 | 5.41 ×10⁻⁶ cm/s | 28.9 ×10⁻⁶ cm/s | 61% | 73% | 51 to 100 nM |
| Oc1cc(-c2cn[nH]c2)ccc1-c1ccc(O[C@@H]2C[C@H]3CCC[C@H](N3)[C@H]2F)nn1 (single isomer, unassigned) [41-ENT2] | 8 | 4.96 ×10⁻⁶ cm/s | 40.9 ×10⁻⁶ cm/s | 66% | 74% | 16 to 50 nM |
| Oc1cc(-n2ccnc2)ccc1-c1ccc(O[C@@H]2C[C@H]3CC(F)(F)[C@@H](C2)N3)nn1 (single isomer, unassigned) [51-ENT1] | 2 | 32.2 ×10⁻⁶ cm/s | 51.5 ×10⁻⁶ cm/s | 90% | 99% | 501 to 10000 nM |
| Oc1cc(-n2ccnc2)ccc1-c1ccc(O[C@H]2C[C@@H]3CC(F)(F)[C@H](C2)N3)nn1 (single isomer, unassigned) [51-ENT2] | 2 | 25.8 ×10⁻⁶ cm/s | 46.7 ×10⁻⁶ cm/s | 86% | 90% | 501 to 10000 nM |
| O=c1cc(-c2cc(O)c(-c3ccc(O[C@@H]4C[C@H]5CCC[C@H](N5)[C@@H]4F)nn3)cc2F)cc[nH]1 (single isomer, unassigned) [57-ENT1] | 73 | 0.26 ×10⁻⁶ cm/s | 18.9 ×10⁻⁶ cm/s | 94% | 101% | 101 to 500 nM |
| O=c1cc(-c2cc(O)c(-c3ccc(O[C@H]4C[C@@H]5CCC[C@@H](N5)[C@H]4F)nn3)cc2F)cc[nH]1 (single isomer, unassigned) [57-ENT2] | 90 | 0.35 ×10⁻⁶ cm/s | 31.3 ×10⁻⁶ cm/s | 77% | 87% | 101 to 500 nM |
| Cn1cc(-c2cc(O)c(-c3ccc(O[C@@H]4CC5CC[C@H](N5)[C@@H]4F)nn3)cn2)cn1 (single isomer, unassigned) [63-ENT1] | 37 | 0.29 ×10⁻⁶ cm/s | 10.9 ×10⁻⁶ cm/s | 103% | 110% | 501 to 10000 nM |
| Cn1cc(-c2cc(O)c(-c3ccc(O[C@H]4C[C@@H]5CCC(N5)[C@H]4F)nn3)cn2)cn1 (single isomer, unassigned) [63-ENT2] | 38 | 0.26 ×10⁻⁶ cm/s | 9.6 ×10⁻⁶ cm/s | 96% | 107% | 501 to 10000 nM |
| Oc1cc(-c2cc[nH]n2)ccc1-c1ccc(O[C@@H]2C[C@H]3CCC[C@H](N3)[C@@H]2F)nn1 (single isomer, unassigned) [66-ENT1] | 11 | 0.93 ×10⁻⁶ cm/s | 10.1 ×10⁻⁶ cm/s | 79% | 80% | 51 to 100 nM |
| Oc1cc(-c2cc[nH]n2)ccc1-c1ccc(O[C@H]2C[C@@H]3CCC[C@@H](N3)[C@H]2F)nn1 (single isomer, unassigned) [66-ENT2] | 9 | 1.18 ×10⁻⁶ cm/s | 11.2 ×10⁻⁶ cm/s | 79% | 78% | 51 to 100 nM |

From patent US12522597B2, “Methods and compositions for modulating splicing” (Skyhawk Therapeutics, Inc., priority 2019, dated 2026)
